Assay results as given in US20120115128A1, “SELECTIVE PROTEIN LABELING” (THE BOARD OF TRUSTEES OF THE UNIVERSITY OF ILLINOIS, priority 2009, published 2012).
In brackets after ≈: the same amount, converted by molar mass. Where two headings read alike, the source gives them in different places.

What was measured:
[1] = test system: nucleus-targeted pfDHFR (K27E, C59R, S108N) soluble domain in NIH 3T3 fibroblast cells; conditions: 500 nM, ca. 15 minutes
E. coli (strain DH5α) = experiment: E. coli growth inhibition assay (MIC on agar plates); assay type: cell-based; conditions: for MIC: Escherichia coli, read-out: minimum inhibitory concentration (MIC)
Description: E. coli growth inihibition assay. […] The minimal inhibitory concentration (MIC) was reported as the lowest concentration at which no colonies formed.

human leukocytes = conditions: cited from earlier work
human cells = conditions: cited from earlier work
eDHFR = target: T1, eDHFR (Escherichia coli, UniProt P0ABQ4); experiment: biochemical; parameters: species or system E. coli; conditions: terbium-complexed probe 20 nM, purified eDHFR-GFP, non-linear least-squares fit; read-out: dissociation constant for binding to eDHFR
T1 construct: pRSETb-EGFP-eDHFR expressed the protein fusion […]-[EGFP]-GSGGSG-[eDHFR]; His6 leader of pRSETb ([…]) (N); made in house; host or cells: E. coli BL21 DE3 (pLysS)

[2] = target: eDHFR expressed on the cell surface of NIH3T3 fibroblasts (Escherichia coli, UniProt P0ABQ4); experiment: Labeling of cell surface-expressed eDHFR (pDisplay-eDHFR) on NIH3T3 fibroblasts, microscopy; assay type: cell-based; conditions: 1 μM, 10 min, time-resolved imaging
[3] = target: T2, GFP-cldn1/tail (N-terminal fusion of EGFP to the C-terminal cytoplasmic domain, residues 187-211, of human … (human, UniProt O95832 187-211, not fully specified)); experiment: intermolecular TR-FRET microscopy in living MDCK cells; sensitized GFP emission at 520 nm
T2 construct: Expressed in living MDCK cells; GFP is the FRET acceptor; also called C-terminal cytoplasmic tail of claudin-1; not shown: enhanced GFP (EGFP) as encoded in vector pEGFP-C1 (Clontech)
T2 chain (looked up): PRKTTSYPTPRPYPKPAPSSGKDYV

[4] = target: GFP-cldn1/tailΔYV (GFP-cldn1/tail construct lacking the C-terminal YV motif) (human) (UniProt O95832); experiment: as above
[5] = target: T2, GFP-cldn1/tail (N-terminal fusion of …); experiment: intermolecular TR-FRET microscopy in living MDCK cells; reference pair ZO-1/PDZ1-eDHFR and GFP-cldn1/tailΔYV

For CCOc1cc(Cc2cnc(N)nc2N)ccc1OCc1cc(OC)c(OCCCCC(=O)NCCOCCOCCNC(=O)OC(C)(C)C)c(OC)c1 [Compound 2a], the “cell permeability (diffuse fluorescence)” value [1] was “passively diffused into mammalian cells” and the MIC (E. coli (strain DH5α); 37° C., 24 hours, lowest concentration at which no colonies formed) was ~20 µM (≈ 15.1 µg/mL).

For COc1cc(Cc2cnc(N)nc2N)cc(C#CCCCC(=O)O)c1OCCCCC(=O)NCCOCCOCCN [Compound 3a], the “ability to cross the E. coli cell membrane (inferred from growth assay)” value (E. coli (strain DH5α)) was “cannot cross the cell membrane” and the MIC (E. coli (strain DH5α); 24 h) was > 100 µM.

In the case of CN(Cc1cnc2nc(N)nc(N)c2n1)c1ccc(C(=O)N[C@@H](CCC(=O)O)C(=O)O)cc1 [MTX, Methotrexate], the “concentration at which toxicity observed” value (human leukocytes) is listed as 2000 nM and the “extracellular concentration at which DNA damage has been observed” value (human cells) is listed as 10 µM.

With COc1cc(Cc2cnc(N)nc2N)cc(OC)c1OCCCCC(=O)NCCOCCOCCNC(=O)CN(CCN(CCN(CC(=O)O)CC(=O)Nc1ccc2c(C)cc(=O)[nH]c2c1)CC(=O)O)CC(=O)O [TMP-cDTPA] the Kd (eDHFR) was 9 ± 1.3 nM and the “cell-surface labelling of eDHFR, time-resolved mode” value [2] was “not”.

B1: ZO-1/PDZ1-eDHFR (C-terminal fusion of eDHFR to the PDZ1 domain, residues 19-113, of human ZO-1) (other, human;Escherichia coli)
chain: MWEQHTVTLHRAPGFGFGIAISGGRDNPHFQSGETSIVISDVLKGGPAEGQLQENDRVAMVNGVSMDNVEHAFAVQQLRKSGKNAKITIRRKKKVQMISLIAALAVDRVIGMENAMPWNLPADLAWFKRNTLNKPVIMGRHTWESIGRPLPGRKNIILSSQPGTDDRVTWVKSVDEAIAACGDVPEIMVIGGGRVYEQFLPKAQKLYLTHIDAEVEGDTHFPDYEPDDWESVFSEFHDADAQNSHSYCFEILERR
notes: Built by inserting ZO-1 19-113 into pLL-1NLS in frame with eDHFR; also called PDZ1 domain of ZO-1
For B1, the “signal-to-noise ratio for intermolecular TR-FRET” value [3] was 6.3, the signal-to-noise ratio for intermolecular TR-FRET [4] was 1.5 and the “fold difference in TR-FRET signal against GFP-cldn1/tailΔYV” value [5] was > 4 fold.
